Series [1] deals with T1, Pyrococcus horikoshii biotin protein ligase (PhBPL) (Pyrococcus horikoshii, UniProt O57883).
T1 sequence (O57883 1-235): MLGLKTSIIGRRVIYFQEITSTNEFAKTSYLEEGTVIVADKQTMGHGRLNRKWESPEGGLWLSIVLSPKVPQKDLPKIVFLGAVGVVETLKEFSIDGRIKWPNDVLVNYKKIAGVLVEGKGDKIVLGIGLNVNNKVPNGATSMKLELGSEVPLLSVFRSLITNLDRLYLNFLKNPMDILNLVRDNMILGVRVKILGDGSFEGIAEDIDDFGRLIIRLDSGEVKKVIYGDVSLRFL
Description: Steady state fluorescence titration of PhBPL with ligand. The settings on record: for blue shift of emission maximum / quenching of intrinsic protein fluorescence: saturating ligand. The series is classed as binding.

A further series deals with E. coli BPL. As to conditions: bio-5′-AMP synthesis; cited from earlier work.
Series [2] deals with T1, Pyrococcus horikoshii biotin protein ligase (PhBPL). Description: Isothermal titration calorimetry of PhBPL with biotin. The series is classed as binding.
The series “AUC” deals with the molecule itself. Description: AUC.
[3] abbreviates: KD, 20°C, Standard Buffer pH 7.5.
Where [4] appears, read: KD, 30°C, Standard Buffer pH 7.5.
Setting [5] is: KD, 40°C, Standard Buffer pH 7.5.
Where [6] appears, read: KD, 50°C, Standard Buffer pH 7.5.

Values joined by “and” are separate entries in the source; they are usually repeats but may differ in a detail not shown here. Equal entries are not always repeated.

Take `Nc1ncnc2c1ncn2C1OC(COP(=O)(O)CP(=O)(O)OP(=O)(O)O)C(O)C1O` (stereo not drawn) [AMPCPP, α,β-methyleneadenosine 5′-triphosphate]: the Kd worked out at 150 µM in series [1] (20°C, Standard Buffer pH 7.5) and 140 µM in series [1] (20°C, titrated into PhBPL saturated with biotin). The “ΔG°” value in series [1] (20°C, titrated into PhBPL saturated with biotin, ΔG°= RTlnKD) is -5.1 ± 0.1 kcal/mol.
Turning to `Nc1ncnc2c1ncn2[C@@H]1O[C@H](COP(=O)(O)OP(=O)(O)OP(=O)(O)O)[C@@H](O)[C@H]1O` [ATP, adenosine 5′-triphosphate], the Km in the series on E. coli BPL is approximately 3000 µM. For the same molecule, the Kd was 240 µM in series [1] (setting [3]); 290 µM in series [1] (setting [4]); 300 µM in series [1] (setting [5]); 430 µM in series [1] (setting [6]); 200 to 400 µM in series [1] (KD, temperature range of 20-50°C). Also, the “blue shift of emission maximum” value in series [1] is on record as “approximately 5 nm”. Besides, the “quenching of intrinsic protein fluorescence” value in series [1] is 60%. In addition, in series [1] (titrations from 20 to 50°C), the “binding enthalpy (van’t Hoff analysis)” value was -3.5 ± 1.5 kcal/mol.
On to `O=C(O)CCCC[C@@H]1SC[C@@H]2NC(=O)N[C@@H]21` [Biotin, d-biotin], for which the “equilibrium association constant by ITC” value in series [2] (20°C, direct titration) is given as “identical to that measured by fluorescence titrations”. For the same molecule, the heat capacity change in series [2] (temperature-dependence of binding by ITC) is 5±14 cal/mole·K. Also, the Kd in series [1] (KD, 10°C, Standard Buffer pH 7.5) amounted to 0.12 µM; in series [1] (setting [3]), 0.2 µM; in series [1] (setting [4]), 0.2 µM; in series [1] (setting [5]) it was 0.51 µM; in series [1] (setting [6]), 0.39 µM. Further, the “increase of equilibrium dissociation constant with temperature” value in series [1] (from 10°C to 50°C) was “approximately four fold”. In addition, the “blue shift of emission maximum” value in series [1] is reported as “approximately 5 nm”. For the same molecule, the “quenching of intrinsic protein fluorescence” value in series [1] stood at 30%. Besides, the “enthalpy of binding (van’t Hoff analysis)” value in series [1] (titrations from 10 to 50°C) is -4.4 ± 0.2 kcal/mol and -4.4 kcal/mol.

B1: Pyrococcus horikoshii Biotin Protein Ligase (enzyme)
chain: MLGLKTSIIGRRVIYFQEITSTNEFAKTSYLEEGTVIVADKQTMGHGRLNRKWESPEGGLWLSIVLSPKVPQKDLPKIVFLGAVGVVETLKEFSIDGRIKWPNDVLVNYKKIAGVLVEGKGDKIVLGIGLNVNNKVPNGATSMKLELGSEVPLLSVFRSLITNLDRLYLNFLKNPMDILNLVRDNMILGVRVKILGDGSFEGIAEDIDDFGRLIIRLDSGEVKKVIYGDVSLRFL
As to B1, the “stoichiometry N” value in “AUC” was 2.

As a reminder, the Kd is the concentration at which binding is half-saturated. Read a high Kd as lower affinity. A word on the Km: it is the substrate concentration at which the rate is half of its maximum. Broadly, the stoichiometry N is the number of molecules, sites or subunits per partner or assembly.

The values above are taken from publication PMC3126109 (Biochemistry, 2010).
